# Laboratory results published in EP0726072A2, “Composition for the treatment of hypertension and congestive heart failure, containing an angiotensin II antagonist and an endopeptidase inhibitor” (BRISTOL-MYERS SQUIBB COMPANY, priority 1995, dated 1996).
# Test system: angiotensin II receptors
# Assay: Inhibition of the pressor response to angiotensin II in conscious cardiomyopathic hamsters
# Type: in vivo, hamsters of the BIO TO-2 strain
# Settings: for Change in mean arterial pressure: pressor response to angiotensin II 100 ng/kg i.v.
# Protocol: The studies described in this experiment were conducted in male hamsters of the BIO TO-2 strain when they were approximately 260 days of age and weighed on average 115 g. These animals develop a genetic form of cardiomyopathy that progresses uniformly among animals through different stages of heart failure. By 240 - 300 days of age the cardiomyopathic hamsters are characterized (as compared with control hamsters) by low mean arterial pressure, a 40% reduction in cardiac output and a decrease in renal blood flow. They display elevated cardiac filling pressure, depressed ventricular function, increased peripheral vascular resistance and have an 8-10-fold increase in plasma atrial natriuretic peptide concentration.
# The experiments were conducted in conscious, unrestrained, cardiomyphathic hamsters three hours after placement of cardivascular catheters using brief anesthesia. The catheters allowed measurement of mean arterial pressure, left ventricular end diastolic pressure, left ventricular systolic pressure and heart rate, and provided a means for the administration of agents intravenously.
# Preliminary experiments were conducted in conscious cardiomyopathic hamsters to determine a dose regimen of BMS 186295 that would nearly completely block the pressor response to angiotensin II for at least two hours. The pressor responses to two challenges of angiotensin II (100 ng/kg, i.v. dissolved in 0.9% sodium chloride, 1 ml/kg) were determined. This dose of angiotensin II produced over a 30% increase in mean arterial pressure. Based on the preliminary experiments, BMS 186295 was administered to 5 cardiomyopathic hamsters at 30 µmol/kg, i.v. followed by continuous i.v. infusion at 1 µmol/kg per min. Challenges of angiotensin II were then repeated at 10- to 30-minute intervals up to 150 minutes following the bolus injection of BMS 186295.
smiles,measurement,setting,value
"CCCCC1=NC2(CCCC2)C(=O)N1Cc1ccc(-c2ccccc2-c2nnn[nH]2)cc1 [BMS 186295, 2-butyl-6,7,8,9-tetrahydro-3-[[2'-(1H-tetrazol-5-yl)[1,1'-biphenyl]-4-yl]-methyl]-1,3-diazaspiro[4.4]nonan-4-one]","pressor responses to angiotensin II, of the response before the administration of the inhibitor","following 30 µmol/kg, i.v. then 1 µmol/kg per min, up to 150 minutes",less than 17%
same,Change in mean arterial pressure,"10′ after 30 µmol/kg, i.v. followed by 1 µmol/kg/min, i.v.",3±2 mm Hg
same,Change in mean arterial pressure,"20′ after 30 µmol/kg, i.v. followed by 1 µmol/kg/min, i.v.",2±1 mm Hg
same,Change in mean arterial pressure,"30′ after 30 µmol/kg, i.v. followed by 1 µmol/kg/min, i.v.",3±2 mm Hg
same,Change in mean arterial pressure,"40′ after 30 µmol/kg, i.v. followed by 1 µmol/kg/min, i.v.",2±1 mm Hg
same,Change in mean arterial pressure,"50′ after 30 µmol/kg, i.v. followed by 1 µmol/kg/min, i.v.",1±1 mm Hg
same,Change in mean arterial pressure,"60′ after 30 µmol/kg, i.v. followed by 1 µmol/kg/min, i.v.",4±1 mm Hg
same,Change in mean arterial pressure,"70′ after 30 µmol/kg, i.v. followed by 1 µmol/kg/min, i.v.",5±2 mm Hg
same,Change in mean arterial pressure,"80′ after 30 µmol/kg, i.v. followed by 1 µmol/kg/min, i.v.",4±1 mm Hg
same,Change in mean arterial pressure,"90′′ after 30 µmol/kg, i.v. followed by 1 µmol/kg/min, i.v.",3±1 mm Hg
same,Change in mean arterial pressure,"150′ after 30 µmol/kg, i.v. followed by 1 µmol/kg/min, i.v.",2±1 mm Hg
same,Change in mean arterial pressure,"120 min after 30 µmol/kg, i.v. followed by 1 µmol/kg/min, i.v.",3±1 mm Hg
same,Change in mean arterial pressure,"-10′, before BMS-186295",31±3 mm Hg
same,Change in mean arterial pressure,"-20′, before BMS-186295",29±2 mm Hg
